Consider three molecules from ChEMBL document CHEMBL1165855, “Guaiane sesquiterpenes from seaweed Ulva fasciata Delile and their antibacterial properties” (2010).

Values after ≈ are worked out from the molar mass of the structure shown.

Holding throughout (format): functional
Experiment [1] has as its system Vibrio parahaemolyticus. The experiment in a line: Antibacterial activity against Vibrio parahaemolyticus ATCC 17809 at 50 ug/ml after 24 hrs by disc-diffusion assay. The settings on record: ATCC 17809, 24 h, read-out: DIZ. On the technique in general: In agar diffusion tests the substance spreads into inoculated agar from a disc or well.
The subject of experiment [2] is Vibrio parahaemolyticus. Kind of experiment: Antibacterial activity against Vibrio parahaemolyticus ATCC 17809 at 100 ug/ml after 24 hrs by disc-diffusion assay. The settings on record: ATCC 17809, 24 h, read-out: DIZ.
In experiment [3] the test system is Vibrio parahaemolyticus. The experiment in a line: Antibacterial activity against Vibrio parahaemolyticus ATCC 17809 at 150 ug/ml after 24 hrs by disc-diffusion assay. The settings on record: ATCC 17809, 24 h, read-out: DIZ.
Experiment [4] has as its system Vibrio parahaemolyticus. The experiment in a line: Antibacterial activity against Vibrio parahaemolyticus ATCC 17809 after 24 hrs by broth microdilution assay. The note with it: ATCC 17809, 24 h. A general note: Dilution methods test growth across graded concentrations, often in twofold steps.
In experiment [5] the test system is Vibrio harveyi. Kind of experiment: Antibacterial activity against Vibrio harveyi MTCC 3438 at 50 ug/ml after 24 hrs by disc-diffusion assay. The note with it: MTCC 3438, 24 h, read-out: DIZ.
Experiment [6] has as its system Vibrio harveyi. The experiment in a line: Antibacterial activity against Vibrio harveyi MTCC 3438 at 100 ug/ml after 24 hrs by disc-diffusion assay. The settings on record: MTCC 3438, 24 h, read-out: DIZ.
The test system of experiment [7] is Vibrio harveyi. The experiment in a line: Antibacterial activity against Vibrio harveyi MTCC 3438 at 150 ug/ml after 24 hrs by disc-diffusion assay. The settings on record: MTCC 3438, 24 h, read-out: DIZ.
The subject of experiment [8] is Vibrio harveyi. The experiment in a line: Antibacterial activity against Vibrio harveyi MTCC 3438 after 24 hrs by broth microdilution assay. The note with it: MTCC 3438, 24 h.
For experiment [9], the system named is Vibrio vulnificus. The experiment in a line: Antibacterial activity against Vibrio vulnificus MTCC 1145 at 50 ug/ml after 24 hrs by disc-diffusion assay. The note with it: MTCC 1145, 24 h, read-out: DIZ.
Experiment [10] deals with Vibrio vulnificus. The experiment in a line: Antibacterial activity against Vibrio vulnificus MTCC 1145 at 100 ug/ml after 24 hrs by disc-diffusion assay. The settings on record: MTCC 1145, 24 h, read-out: DIZ.
The subject of experiment [11] is Vibrio vulnificus. The experiment in a line: Antibacterial activity against Vibrio vulnificus MTCC 1145 at 150 ug/ml after 24 hrs by disc-diffusion assay. The note with it: MTCC 1145, 24 h, read-out: DIZ.
Experiment [12] has as its system Vibrio vulnificus. Kind of experiment: Antibacterial activity against Vibrio vulnificus MTCC 1145 after 24 hrs by broth microdilution assay. The note with it: MTCC 1145, 24 h.

Usually MIC stands for the lowest concentration that inhibits growth of the organism. A high value points to weaker potency. As to `CC[C@H]1CCC[C@@](C)(COC(C)=O)[C@H]2C=C[C@H](C)[C@@H]12`, the zone of inhibition at 50 µg/mL in experiment [1] was determined as 15.3 mm; in experiment [5], 11.7 mm; in experiment [9], 14.1 mm. Further, the results for the zone of inhibition at 100 µg/mL in experiment [2], in [6] and in experiment [10] were 15.8 mm, 12.3 mm and 14.9 mm, respectively. Besides, the zone of inhibition at 150 µg/mL in experiment [3] was found to be 16.6 mm; in experiment [7], 12.6 mm; in experiment [11] it was 15.1 mm. Besides, the values for the MIC in experiment [4], in experiment [8] and in experiment [12] were 25 µg/mL (≈ 94.6 µM), 30 µg/mL (≈ 113 µM) and 25 µg/mL (≈ 94.6 µM), respectively.
As to `CC[C@H]1CCC[C@@](C)(CO)[C@H]2C=C[C@H](C)[C@@H]12`, the zone of inhibition at 50 µg/mL came out at 12.7 mm in experiment [1], 10.6 mm in experiment [5] and 11.7 mm in experiment [9]. The zone of inhibition at 100 µg/mL in [2] came to 12.9 mm; in [6], 11.7 mm; in [10], 12 mm. For the same molecule, the values for the zone of inhibition at 150 µg/mL in experiment [3], in experiment [7] and in experiment [11] were 13.2 mm, 12.9 mm and 12.4 mm, respectively. The results for the minimal inhibitory concentration (MIC) in experiment [4], in [8] and in experiment [12] were 35 µg/mL (≈ 157 µM), 50 µg/mL (≈ 225 µM) and 40 µg/mL (≈ 180 µM), respectively.
On to `CC(C)[C@H]1CCC[C@@](C)(O)[C@H]2C=C[C@H](C)[C@@H]12`, for which the results for the zone of inhibition at 50 µg/mL in [1], in experiment [5] and in experiment [9] were 6.83 mm, 6.54 mm and 7.15 mm, respectively. The zone of inhibition at 100 µg/mL in experiment [2] worked out at 6.92 mm; in [6] it was 6.58 mm; in [10] it was 7.3 mm. In addition, the zone of inhibition at 150 µg/mL in experiment [3] worked out at 7.28 mm; in experiment [7], 6.6 mm; in experiment [11] it was 7.85 mm. The values for the MIC in [4], in [8] and in experiment [12] were 110 µg/mL (≈ 495 µM), 160 µg/mL (≈ 720 µM) and 125 µg/mL (≈ 562 µM), respectively.
